# According to US11959486B2, “Stable liquid formulation of AMG 416 (etelcalcetide)” (AMGEN INC., priority 2013, dated 2024):
# Test: Stability of liquid formulations over range of pH 2-6 in succinate-buffered saline, HPLC purity, with extrapolation (Example 3)
# Assay type: physicochemical
# Protocol: The solution was divided evenly into five 4 mL portions which were adjusted to pH 2, 3, 4, 5 and 6, respectively, with NaOH and HCl as needed. Three 1 mL solutions were aliquoted from each portion and incubated at 2-8° C., room temperature (about 25° C.), and 40° C., respectively. The remaining 1 mL solution in each aliquot was diluted with pH 4.5 succinate buffered saline to 4 mL of 2.5 mg/mL peptide concentration, pH adjusted, and incubated in the same manner.
# Based on the extent of degradation at 28 days, predictions of the extent of degradation were calculated as described, supra. Bolded values indicate conditions which show less than 10% degradation, and which may be preferred for a liquid formulation. Conditions where the sample at 28 days show slightly higher purity than the initial data are presented as 0.0% for all projections.
# At each pH value, the degradation data for each of three temperatures is compared to data from the other two temperatures to calculate the observed acceleration. The predicted acceleration is by simple application of Arrhenius principles as described above.
# [1] = 2.5 mg/mL, pH 2, from 2-8° C. data
# [2] = 2.5 mg/mL, pH 2, from 40° C. data
# [3] = 2.5 mg/mL, pH 3, from 2-8° C. data
# [4] = 2.5 mg/mL, pH 3, from 40° C. data
# [5] = 2.5 mg/mL, pH 4, from 2-8° C. data
# [6] = 2.5 mg/mL, pH 4, from 40° C. data
# [7] = 2.5 mg/mL, pH 5, from 2-8° C. data
# [8] = 2.5 mg/mL, pH 5, from 40° C. data
# [9] = 2.5 mg/mL, pH 6, from 2-8° C. data
# [10] = 2.5 mg/mL, pH 6, from 40° C. data
# [11] = 10 mg/mL, pH 2, from 2-8° C. data
# [12] = 10 mg/mL, pH 2, from 40° C. data
# [13] = 10 mg/mL, pH 3, from 2-8° C. data
# [14] = 10 mg/mL, pH 3, from 40° C. data
# [15] = 10 mg/mL, pH 4, from 2-8° C. data
# [16] = 10 mg/mL, pH 4, from 40° C. data
# [17] = 10 mg/mL, pH 5, from 2-8° C. data
# [18] = 10 mg/mL, pH 5, from 40° C. data
# [19] = 10 mg/mL, pH 6, from 2-8° C. data
# [20] = 10 mg/mL, pH 6, from 40° C. data
structure (smiles),measurement,setting,value
"CC(=O)N[C@H](CSSC[C@H](N)C(=O)O)C(=O)N[C@H](C)C(=O)N[C@H](CCCNC(=N)N)C(=O)N[C@H](CCCNC(=N)N)C(=O)N[C@H](CCCNC(=N)N)C(=O)N[C@H](C)C(=O)N[C@H](CCCNC(=N)N)C(N)=O [AMG 416, N-acetyl-D-cysteinyl-D-alanyl-D-arginyl-D-arginyl-D-arginyl-D-alanyl-D-arginamide disulfide with L-cysteine]",Observed degradation at 28 days,"2.5 mg/mL, pH 2, 2-8° C.",0.0%
same,Observed degradation at 28 days,"2.5 mg/mL, pH 2, 40° C.",9.1%
same,Observed degradation at 28 days,"2.5 mg/mL, pH 2, RT",0.6%
same,Calculated Degradation 1 y 2-8° C.,[1],0.0%
same,Calculated Degradation 1 y RT,[1],0.0%
same,Calculated Degradation 2 y 2-8° C.,[1],0.0%
same,Calculated Degradation 2 y RT,[1],0.0%
same,Calculated Degradation 1 y,[2],116.5%
same,Calculated Degradation 1 y RT,[2],29.1%
same,Calculated Degradation 2 y 2-8° C.,[2],14.6%
same,Calculated Degradation 2 y RT,[2],58.3%
same,Calculated Degradation 1 y,"2.5 mg/mL, pH 2, from RT data",7.9%
same,Calculated Degradation 1 y RT,"2.5 mg/mL, pH 2, from RT data",7.9%
same,Calculated Degradation 2 y 2-8° C.,"2.5 mg/mL, pH 2, from RT data",4.0%
same,Calculated Degradation 2 y RT,"2.5 mg/mL, pH 2, from RT data",15.9%
same,Observed degradation at 28 days,"2.5 mg/mL, pH 3, 2-8° C.",0.0%
same,Observed degradation at 28 days,"2.5 mg/mL, pH 3, 40° C.",1.8%
same,Observed degradation at 28 days,"2.5 mg/mL, pH 3, RT",0.0%
same,Calculated Degradation 1 y 2-8° C.,[3],0.0%
same,Calculated Degradation 1 y RT,[3],0.0%
same,Calculated Degradation 2 y 2-8° C.,[3],0.0%
same,Calculated Degradation 2 y RT,[3],0.0%
same,Calculated Degradation 1 y,[4],22.5%
same,Calculated Degradation 1 y RT,[4],5.6%
same,Calculated Degradation 2 y 2-8° C.,[4],2.8%
same,Calculated Degradation 2 y RT,[4],11.3%
same,Calculated Degradation 1 y,"2.5 mg/mL, pH 3, from RT data",0.0%
same,Calculated Degradation 1 y RT,"2.5 mg/mL, pH 3, from RT data",0.0%
same,Calculated Degradation 2 y 2-8° C.,"2.5 mg/mL, pH 3, from RT data",0.0%
same,Calculated Degradation 2 y RT,"2.5 mg/mL, pH 3, from RT data",0.0%
same,Observed degradation at 28 days,"2.5 mg/mL, pH 4, 2-8° C.",−0.1%
same,Observed degradation at 28 days,"2.5 mg/mL, pH 4, 40° C.",6.9%
same,Observed degradation at 28 days,"2.5 mg/mL, pH 4, RT",0.3%
same,Calculated Degradation 1 y 2-8° C.,[5],0.0%
same,Calculated Degradation 1 y RT,[5],0.0%
same,Calculated Degradation 2 y 2-8° C.,[5],0.0%
same,Calculated Degradation 2 y RT,[5],0.0%
same,Calculated Degradation 1 y,[6],88.7%
same,Calculated Degradation 1 y RT,[6],22.2%
same,Calculated Degradation 2 y 2-8° C.,[6],11.1%
same,Calculated Degradation 2 y RT,[6],44.3%
same,Calculated Degradation 1 y,"2.5 mg/mL, pH 4, from RT data",3.6%
same,Calculated Degradation 1 y RT,"2.5 mg/mL, pH 4, from RT data",3.6%
same,Calculated Degradation 2 y 2-8° C.,"2.5 mg/mL, pH 4, from RT data",1.8%
same,Calculated Degradation 2 y RT,"2.5 mg/mL, pH 4, from RT data",7.2%
same,Observed degradation at 28 days,"2.5 mg/mL, pH 5, 2-8° C.",0.2%
same,Observed degradation at 28 days,"2.5 mg/mL, pH 5, 40° C.",26.1%
same,Observed degradation at 28 days,"2.5 mg/mL, pH 5, RT",2.9%
same,Calculated Degradation 1 y 2-8° C.,[7],2.9%
same,Calculated Degradation 1 y RT,[7],11.8%
same,Calculated Degradation 2 y 2-8° C.,[7],5.9%
same,Calculated Degradation 2 y RT,[7],23.5%
same,Calculated Degradation 1 y,[8],333.6%
same,Calculated Degradation 1 y RT,[8],83.4%
same,Calculated Degradation 2 y 2-8° C.,[8],41.7%
same,Calculated Degradation 2 y RT,[8],166.8%
same,Calculated Degradation 1 y,"2.5 mg/mL, pH 5, from RT data",37.7%
same,Calculated Degradation 1 y RT,"2.5 mg/mL, pH 5, from RT data",37.7%
same,Calculated Degradation 2 y 2-8° C.,"2.5 mg/mL, pH 5, from RT data",18.9%
same,Calculated Degradation 2 y RT,"2.5 mg/mL, pH 5, from RT data",75.5%
same,Observed degradation at 28 days,"2.5 mg/mL, pH 6, 2-8° C.",0.8%
same,Observed degradation at 28 days,"2.5 mg/mL, pH 6, 40° C.",45.0%
same,Observed degradation at 28 days,"2.5 mg/mL, pH 6, RT",18.1%
same,Calculated Degradation 1 y 2-8° C.,[9],10.7%
same,Calculated Degradation 1 y RT,[9],43.0%
same,Calculated Degradation 2 y 2-8° C.,[9],21.5%
same,Calculated Degradation 2 y RT,[9],86.0%
same,Calculated Degradation 1 y,[10],575.7%
same,Calculated Degradation 1 y RT,[10],143.9%
same,Calculated Degradation 2 y 2-8° C.,[10],72.0%
same,Calculated Degradation 2 y RT,[10],287.8%
same,Calculated Degradation 1 y,"2.5 mg/mL, pH 6, from RT data",231.0%
same,Calculated Degradation 1 y RT,"2.5 mg/mL, pH 6, from RT data",231.0%
same,Calculated Degradation 2 y 2-8° C.,"2.5 mg/mL, pH 6, from RT data",115.5%
same,Calculated Degradation 2 y RT,"2.5 mg/mL, pH 6, from RT data",462.1%
same,predicted degradation over 2 years at RT,"2.5 mg/mL, pH range 2-4, extrapolated from the 2-8° C. data",less than 10%
same,Observed degradation at 28 days,"10 mg/mL, pH 2, 2-8° C.",0.3%
same,Observed degradation at 28 days,"10 mg/mL, pH 2, 40° C.",5.3%
same,Observed degradation at 28 days,"10 mg/mL, pH 2, RT",0.6%
same,Calculated Degradation at 1 y RT,[11],15.4%
same,Calculated Degradation at 2 y 5° C.,[11],7.7%
same,Calculated Degradation at 2 y RT,[11],30.7%
same,Calculated Degradation at 360 d,[11],3.8%
same,Calculated Degradation at 1 y RT,[12],17.1%
same,Calculated Degradation at 2 y 5° C.,[12],8.6%
same,Calculated Degradation at 2 y RT,[12],34.2%
same,Calculated Degradation at 360 d,[12],68.4%
same,Calculated Degradation at 1 y RT,"10 mg/mL, pH 2, from RT data",8.1%
same,Calculated Degradation at 2 y 5° C.,"10 mg/mL, pH 2, from RT data",4.0%
same,Calculated Degradation at 2 y RT,"10 mg/mL, pH 2, from RT data",16.1%
same,Calculated Degradation at 360 d,"10 mg/mL, pH 2, from RT data",8.1%
same,Observed degradation at 28 days,"10 mg/mL, pH 3, 2-8° C.",−0.2%
same,Observed degradation at 28 days,"10 mg/mL, pH 3, 40° C.",1.1%
same,Observed degradation at 28 days,"10 mg/mL, pH 3, RT",0.2%
same,Calculated Degradation at 1 y RT,[13],0.0%
same,Calculated Degradation at 2 y 5° C.,[13],0.0%
same,Calculated Degradation at 2 y RT,[13],0.0%
same,Calculated Degradation at 360 d,[13],0.0%
same,Calculated Degradation at 1 y RT,[14],3.5%
same,Calculated Degradation at 2 y 5° C.,[14],1.8%
same,Calculated Degradation at 2 y RT,[14],7.0%
same,Calculated Degradation at 360 d,[14],14.1%
same,Calculated Degradation at 1 y RT,"10 mg/mL, pH 3, from RT data",2.6%
same,Calculated Degradation at 2 y 5° C.,"10 mg/mL, pH 3, from RT data",1.3%
same,Calculated Degradation at 2 y RT,"10 mg/mL, pH 3, from RT data",5.1%
same,Calculated Degradation at 360 d,"10 mg/mL, pH 3, from RT data",2.6%
same,Observed degradation at 28 days,"10 mg/mL, pH 4, 2-8° C.",−0.1%
same,Observed degradation at 28 days,"10 mg/mL, pH 4, 40° C.",14.3%
same,Observed degradation at 28 days,"10 mg/mL, pH 4, RT",0.7%
same,Calculated Degradation at 1 y RT,[15],0.0%
same,Calculated Degradation at 2 y 5° C.,[15],0.0%
same,Calculated Degradation at 2 y RT,[15],0.0%
same,Calculated Degradation at 360 d,[15],0.0%
same,Calculated Degradation at 1 y RT,[16],45.8%
same,Calculated Degradation at 2 y 5° C.,[16],22.9%
same,Calculated Degradation at 2 y RT,[16],91.7%
same,Calculated Degradation at 360 d,[16],>100%
same,Calculated Degradation at 1 y RT,"10 mg/mL, pH 4, from RT data",8.6%
same,Calculated Degradation at 2 y 5° C.,"10 mg/mL, pH 4, from RT data",4.3%
same,Calculated Degradation at 2 y RT,"10 mg/mL, pH 4, from RT data",17.1%
same,Calculated Degradation at 360 d,"10 mg/mL, pH 4, from RT data",8.6%
same,Observed degradation at 28 days,"10 mg/mL, pH 5, 2-8° C.",0.3%
same,Observed degradation at 28 days,"10 mg/mL, pH 5, 40° C.",34.9%
same,Observed degradation at 28 days,"10 mg/mL, pH 5, RT",5.6%
same,Calculated Degradation at 1 y RT,[17],13.8%
same,Calculated Degradation at 2 y 5° C.,[17],6.9%
same,Calculated Degradation at 2 y RT,[17],27.6%
same,Calculated Degradation at 360 d,[17],3.5%
same,Calculated Degradation at 1 y RT,[18],>100%
same,Calculated Degradation at 2 y 5° C.,[18],55.9%
same,Calculated Degradation at 2 y RT,[18],>100%
same,Calculated Degradation at 360 d,[18],>100%
same,Calculated Degradation at 1 y RT,"10 mg/mL, pH 5, from RT data",71.4%
same,Calculated Degradation at 2 y 5° C.,"10 mg/mL, pH 5, from RT data",35.7%
same,Calculated Degradation at 2 y RT,"10 mg/mL, pH 5, from RT data",>100%
same,Calculated Degradation at 360 d,"10 mg/mL, pH 5, from RT data",71.4%
same,Observed degradation at 28 days,"10 mg/mL, pH 6, 2-8° C.",1.9%
same,Observed degradation at 28 days,"10 mg/mL, pH 6, 40° C.",45.1%
same,Observed degradation at 28 days,"10 mg/mL, pH 6, RT",26.9%
same,Calculated Degradation at 1 y RT,[19],95.7%
same,Calculated Degradation at 2 y 5° C.,[19],47.8%
same,Calculated Degradation at 2 y RT,[19],>100%
same,Calculated Degradation at 360 d,[19],23.9%
same,Calculated Degradation at 1 y RT,[20],>100%
same,Calculated Degradation at 2 y 5° C.,[20],72.2%
same,Calculated Degradation at 2 y RT,[20],>100%
same,Calculated Degradation at 360 d,[20],>100%
same,Calculated Degradation at 1 y RT,"10 mg/mL, pH 6, from RT data",>100%
same,Calculated Degradation at 2 y 5° C.,"10 mg/mL, pH 6, from RT data",>100%
same,Calculated Degradation at 2 y RT,"10 mg/mL, pH 6, from RT data",>100%
same,Calculated Degradation at 360 d,"10 mg/mL, pH 6, from RT data",>100%
same,extrapolated degradation after 2 years at room temperature,2.5 or 10 mg/mL solutions at pH 3,less than 10%
same,pH of least degradation,"28 day point, 10 and 2.5 mg/mL",approximately 3.0
